Assay results published in publication PMC10458312, “Xanthones with Potential Anti-Inflammatory and Anti-HIV Effects from the Stems and Leaves of Cratoxylum cochinchinense” (Molecules, 2023).
Read-outs that look alike come from different tables or passages of the source.

What was measured:
HIV-1IIIB = assay: Inhibition assay for the cytopathic effects of HIV-1 (syncytia formation) in C8166 cells; details: for TI (therapeutic index) = CC50/EC50: CC50 in C8166 / EC50 against HIV-1; for EC50: Human immunodeficiency virus 1, C8166, 72 h, read-out: EC50 (50% effective concentration), anti-HIV-1
Procedure: All isolated xanthones 1–12 were assessed for their anti-HIV reverse transcriptase (RT) effects according to the inhibition assay for the cytopathic activities of HIV-1 (EC50) as well as the cytotoxic activities assay against C8166 cell line (CC50) according to MTT methods.
All isolated xanthones 1–12 were assessed for their anti-HIV-1 reverse transcriptase (RT) effects in vitro on the basis of the inhibition assay for the cytopathic effects of HIV-1 (EC50), in light of the protocol which is described in detail in the Supplementary Material of our current article, in which AZT (3′-azido-3′-deoxythymidine) was adopted as the positive control. All isolated xanthones 1–12 and the positive control (AZT) were also evaluated for their cytotoxic activities against C8166 cells (CC50) on the basis of the MTT method. […]
(§1) Anti-HIV-1 activity bioassays
Cytotoxicity against C8166 cells (CC50) was assessed using the MTT method, and anti-HIV-1 activity was evaluated by the inhibition assay for the cytopathic effects of HIV-1 (EC50). Briefly, cells were seeded on a microtiter plate in the absence or presence of various concentrations of compounds in triplicate and incubated at 37 °C in a humid atmosphere of 5% CO2 for three days.
20.0 μL MTT reagent (5.0 mg/mL in PBS) was added to each well, then incubated at 37 °C for 4 h, 50% DMF-20% SDS (100.0 μL) was added. After the formazan was dissolved completely, the plates were read on a Bio-Tek ELx 800 ELISA reader at 595 nm/630 nm (A595/630). The cytotoxic concentration that caused the reduction of viable cells by 50% (CC50) was calculated from dose–response curve. In 100.0 μL various concentrations of compounds, C8166 cells (4×10^5/mL) were infected with virus (HIV-1IIIB) at a multiplicity of infection (M. O. I) of 0.06. The final volume per well was 200.0 μL. Control assays were performed without the testing compounds in HIV-1IIIB infected and uninfected cultures. AZT (3′-azido-3′-deoxythymidine) was used as a positive control. After three days of culture, the cytopathic effect (CPE) was measured by counting the number of syncytia (multinucleated giant cell). Percentage inhibition of syncytia formation was calculated and 50% effective concentration (EC50) was calculated. The therapeutic index (TI) was calculated from the ratio of CC50/EC50.

[1] = MTT cytotoxicity assay against C8166 cells; format: cell-based; details: human
Procedure: as §1
50% DMF-20% SDS (100.0 μL) was added. After the formazan was dissolved completely, the
volume per well was 200.0 μL. Control assays were performed without the testing compounds in
HIV-1IIIB infected and uninfected cultures. […]

[2] = test system: NO production induced by lipopolysaccharide in mouse macrophage RAW 264.7 cells; assay: Inhibition of NO production induced by lipopolysaccharide in RAW 264.7 cells (Griess reaction); format: cell-based; details: RAW264.7, LPS-induced RAW 264.7 cells, 24 h, mean ± SD of triplicate determinations, read-out: IC50 (50% inhibitory concentration on NO production)
[3] = C8166 cells, C8166 cell line, MTT, three days, read-out: CC50 (50% cytotoxic concentration)

| Structure (SMILES) | TI (therapeutic index) = CC50/EC50 (HIV-1IIIB) | EC50 (HIV-1IIIB) [µM] | CC50 at 3 days [1] [µM] | IC50 [2] [µM] | CC50 at 3 days [1, 3] [µM] |
| --- | --- | --- | --- | --- | --- |
| Cc1cn([C@H]2C[C@H](N=[N+]=[N-])[C@@H](CO)O2)c(=O)[nH]c1=O [AZT, 3′-azido-3′-deoxythymidine, reference compound] | 193,371.51 | 0.0208 | 4020 | – | – |
| C=C(C)C(O)CCC(C)=CCc1c(O)c(CC=C(C)C)c(O)c2c(=O)c3cc(O)ccc3oc12 (stereo not shown) [Compound 1, Cratocochinone A] | >909.09 | 0.22 | – | 1.29 ± 0.06 | > 200 |
| COc1ccc2c(=O)c3c(O)cc4c(c3oc2c1O)C(C)(C)C(CO)O4 (stereo not shown) [Compound 2, Cratocochinone B] | >294.12 | 0.68 | – | 2.17 ± 0.09 | > 200 |
| COc1ccc2c(=O)c3c(OC)c(OC)c(O)cc3oc2c1O [Compound 3, Cratocochinone C] | >105.82 | 1.89 | – | 0.86 ± 0.05 | > 200 |
| COc1ccc2c(=O)c3cc(O)c(OC)c(O)c3oc2c1OC [Compound 4, Cratocochinone D] | >49.14 | 4.07 | – | 9.42 ± 0.13 | > 200 |
| CC(C)=CCC/C(C)=C/Cc1c(O)c(CC=C(C)C)c(O)c2c(=O)c3c(O)ccc(O)c3oc12 [Compound 5, 1,3,5,8-tetrahydroxy-2-(3-methybut-2-enyl)-4-(3,7-dimethylocta-2,6-dienyl) xanthone] | >79.05 | 2.53 | – | 6.47 ± 0.1 | > 200 |
| CC1(C)c2c(cc(O)c3c(=O)c4ccc(O)c(O)c4oc23)O[C@H]1CO [Compound 6, cochinchinone P] | >64.94 | 3.08 | – | 8.35 ± 0.15 | > 200 |
| C[C@@H]1Oc2cc(O)c3c(=O)c4cc(O)c(O)c(O)c4oc3c2C1(C)C [Compound 7, 2-deprenyl-7-hydroxy-rheediaxanthone] | >48.08 | 4.16 | – | 12.58 ± 0.12 | > 200 |
| COc1cc2c(c3oc4c5c(ccc4c(=O)c13)OCO5)C=CC(C)(C)O2 [Compound 8, musaxanthone] | >22.45 | 8.91 | – | 4.16 ± 0.08 | > 200 |
| COc1c(O)cc2oc3ccc(O)c(OC)c3c(=O)c2c1OC [Compound 9, 3,7-dihydroxy-1,2,8-trimethoxy-9H-xanthen-9-one] | >37.59 | 5.32 | – | 18.4 ± 0.21 | > 200 |
| COc1cc(O)c2c(=O)c3c(OC)c(OC)c(O)cc3oc2c1 [Compound 10, 3,8-dihydroxy-1,2,6-trimethoxy-9H-xanthen-9-one] | >74.91 | 2.67 | – | 7.47 ± 0.11 | > 200 |
| COc1cc2oc3c(O)ccc(OC)c3c(=O)c2c(O)c1OC [Compound 11, 1,5-dihydroxy-2,3,8-trimethoxy-9H-xanthen-9-one] | >17.81 | 11.2 | – | 3.16 ± 0.09 | > 200 |
| COc1c(O)cc2oc3cc(O)c(OC)c(OC)c3c(=O)c2c1O [Compound 12, 1,3,6-trihydroxy-2,7,8-trimethoxy-9H-xanthen-9-one] | >31.50 | 6.35 | – | 6.21 ± 0.08 | > 200 |
| C[C@]12CCC(=O)C=C1CC[C@@H]1[C@@H]2[C@@H](O)C[C@@]2(C)[C@H]1CC[C@]2(O)C(=O)CO [Hydrocortisone, reference compound] | – | – | – | 4.08 ± 0.08 | – |
